Measurements taken from patent US6288091A, “Antiherpes virus compounds and methods for their preparation and use” (Boehringer Ingelheim Ltd., priority 1999, dated 2001).

Tested on: HSV-1 KOS
Assay: Cutaneous HSV-1 infection in the SKH-1 hairless mouse model, oral administration
Format: in vivo
Conditions: Human alphaherpesvirus 1, Group 1 Table 1 entries, tid for five days, commencing three hours post infection, in 0.03 N aqueous HCl, read-out: ED50, reduction of viral pathology
Experimental: In addition to the above results, certain Group 1 compounds have been tested against cutaneous HSV-1 infection in the SKH-1 hairless mouse model (P. H. Lee et al., supra). In this instance, viral pathology was monitored using a subjective scoring system and infection was initiated by spreading a viral inoculum (HSV-1 KOS, 7.3×10^7 PFU) over punctured skin.
Still furthermore, oral doses of Entry No.29 of Group 1 at 50 mg/kg/day and 100 mg/kg/day were active in the preceding mouse model when treatment was initiated at 65 h post inoculation. Also, topical treatment of cutaneous HSV-2 infections, namely HG-52 or the acyclovir resistant HSV-2 strain VK-1 (C. S. Crumpacker, New Engl. J. Med., 1989, 320, 293) infections, in the mouse model with the above noted 3% w/w formulation of Entry No. 29 was therapeutically effective, producing a 58 to 72% reduction of viral pathology.

Compared with `C[C@@H](c1ccccc1)N(CC(=O)Nc1ccc(-c2csc(N)n2)cc1)C(=O)c1ccncc1` [Example 58], `Nc1nc(-c2ccc(NC(=O)CN(Cc3ccccc3)C(=O)c3ccncc3)cc2)cs1` [Example 29] is 1.8-fold higher in ED50: 31 mg/kg for the first, 56 mg/kg for the second.

Compared with `Nc1nc(-c2ccc(NC(=O)CN(Cc3ccncc3)C(=O)C3CCCCC3)cc2)cs1` [Example 49, N-{2-{{4-(2-amino-4-thiazolyl)phenyl}amino}-2-oxoethyl}-N-(4-pyridinylmethyl)cyclohexanecarboxamide], `Nc1nc(-c2ccc(NC(=O)CN(Cc3ccccc3)C(=O)C3CCCC3)cc2)cs1` [Example 36] is 2.5-fold lower in ED50: 129 mg/kg for the first, 51 mg/kg for the second.
